Source: publication PMC8375664 (Frontiers in Endocrinology, 2021)
Bridge positions count the residues as written; N and C are the ends. Square brackets hold non-standard residues; d marks the D form. Peptide text beside a SMILES is read from it. d2Nal = N[C@H](Cc1ccc2ccccc2c1)C(=O)O

Key:
[1] = target: T1, rat MC4R (Rattus norvegicus, UniProt P70596); experiment: cAMP production by rat MC4R in transfected COS-7 cells (agonist mode)
[2] = target: human MC4R (Homo sapiens, UniProt P32245); experiment: cAMP production by human MC4R in transfected COS-7 cells (agonist mode)
Chain of human MC4R (P32245 whole entry): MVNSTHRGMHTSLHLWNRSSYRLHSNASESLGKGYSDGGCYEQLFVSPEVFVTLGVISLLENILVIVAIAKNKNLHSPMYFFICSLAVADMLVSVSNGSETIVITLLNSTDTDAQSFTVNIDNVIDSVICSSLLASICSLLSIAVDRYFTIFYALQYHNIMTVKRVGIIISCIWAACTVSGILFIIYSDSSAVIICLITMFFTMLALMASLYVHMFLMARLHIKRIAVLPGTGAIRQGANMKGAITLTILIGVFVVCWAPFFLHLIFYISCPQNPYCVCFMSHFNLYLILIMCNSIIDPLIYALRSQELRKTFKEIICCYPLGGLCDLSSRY

[3] = target: T1, rat MC4R; experiment: Inhibition of agonist-induced cAMP production by rat MC4R in transfected COS-7 cells (antagonist mode)
[4] = test system: human gut specimens (duodenum, ileum and colon); conditions: incubation of human gut specimens from duodenum; cited from earlier work
Source text: Glucagon-like peptide-1 (GLP-1) is a gastrointestinal hormone that is secreted from intestinal L-cells after meal intake. It acts to inhibit appetite and potentiate glucose-stimulated insulin secretion ([1]–[3]). These actions led to the development of GLP-1 based drugs, which have been used for more than a decade for type-2-diabetes treatment and recently also to induce weight loss. In parallel with the development and refinement of GLP-1 based drugs, research has been directed at uncovering the molecular mechanisms responsible for GLP-1 secretion, aiming to create a therapeutically relevant ...

[5] = test system: isolated perfused rat distal small intestine; experiment: GLP-1 secretion from isolated perfused rat distal small intestine
Experimental: Male Wistar rats (~250 g) and male C57BL/6JRj mice (~28 g, 11–12 weeks) were purchased from the Janvier Labs (Le Genest-Saint-Isle, France). Mice and rats were housed with ad libitum access to standard chow and water following a 12:12 h light:dark cycle and were acclimatized for a least a week before experiments. On the day of experiment, rats and mice were transferred to our perfusion facility and anesthetized with a subcutaneous injection of hypnorm/midazolam (rats) (0.3 ml/100 g body weight, per ml: 0.08 mg fentanyl, 2.5 mg fluanisone, 0.45 mg Methyl Parahydroxybenzoate, 0.05 mg Propyl Parahydroxybenzoate, Midazolam: 1.25 mg, Matrix Pharmaceuticals, Hellerup, Denmark) or with an intraperitoneal injection of Ketamine/Xylazine (0.1 ml/20 g) (90 mg/kg Ketamine, Ketaminol Vet, MSD Animal Health; 10 mg/kg Xylazine, Rompun Vet., Bayer Animal Health) respectively, to block the activity of pain sensing nerves and to induce surgical anesthesia. For distal perfusions, the rat or mouse was placed on a heated operating table (37°C), the abdominal cavity was opened by a mid-line incision and the large intestine was excised after tying off the supplying vasculature. Furthermore, the upper half of the small intestine was removed. In the rat, the lower half of the small intestine (~50 cm) was retained and perfused in situ after insertion of a catheter into the upper mesenteric artery, while perfusion effluent was collected through a catheter inserted in the portal vein. […]
(§1) Total GLP-1 concentrations in venous effluents were quantified using an in-house RIA (code: 89390) ([23]). […] Samples were assayed non-extracted and concentrations were calculated by a four-parameter interpolation to a standard curve containing synthetic GLP-1 7–36 amide (H-6795-GMP, Bachem, Bubendorf, Switzerland) ranging from 5 to 320 pmol/L. I^125-labeled GLP-1 7–36 amide (a gift from Novo Nordisk A/S, Bagssværd, Denmark) was used as tracer. […]

[6] = test system: isolated perfused mouse small intestine, upper half; experiment: GLP-1 secretion from isolated perfused mouse small intestine, upper half; conditions: vascular administration at end of experiments
Experimental: (§2) Male Wistar rats (~250 g) and male C57BL/6JRj mice (~28 g, 11–12 weeks) were purchased from the Janvier Labs (Le Genest-Saint-Isle, France). Mice and rats were housed with ad libitum access to standard chow and water following a 12:12 h light:dark cycle and were acclimatized for a least a week before experiments. On the day of experiment, rats and mice were transferred to our perfusion facility and anesthetized with a subcutaneous injection of hypnorm/midazolam (rats) (0.3 ml/100 g body weight, per ml: 0.08 mg fentanyl, 2.5 mg fluanisone, 0.45 mg Methyl Parahydroxybenzoate, 0.05 mg Propyl Parahydroxybenzoate, Midazolam: 1.25 mg, Matrix Pharmaceuticals, Hellerup, Denmark) or with an intraperitoneal injection of Ketamine/Xylazine (0.1 ml/20 g) (90 mg/kg Ketamine, Ketaminol Vet, MSD Animal Health; 10 mg/kg Xylazine, Rompun Vet., Bayer Animal Health) respectively, to block the activity of pain sensing nerves and to induce surgical anesthesia. […]
as §1

[7] = test system: isolated perfused distal mouse small intestine; experiment: GLP-1 secretion from isolated perfused mouse small intestine, distal part; conditions: vascular administration at end of experiment
Experimental: as §2, §1

T1 sequence (P70596 whole entry): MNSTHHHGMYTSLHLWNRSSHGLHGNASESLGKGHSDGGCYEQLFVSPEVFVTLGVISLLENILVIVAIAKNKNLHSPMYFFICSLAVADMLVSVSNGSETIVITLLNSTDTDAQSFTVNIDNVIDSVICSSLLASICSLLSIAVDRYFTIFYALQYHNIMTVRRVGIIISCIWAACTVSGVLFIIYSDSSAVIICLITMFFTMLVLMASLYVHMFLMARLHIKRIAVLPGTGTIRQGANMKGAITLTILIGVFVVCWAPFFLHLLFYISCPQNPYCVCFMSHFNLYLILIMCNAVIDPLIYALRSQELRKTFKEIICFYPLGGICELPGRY

CC(=O)N[C@H]1CSSC[C@@H](C(=O)N2CCC[C@H]2C(=O)N2CCC[C@H]2C(=O)N[C@@H](CCCCN)C(=O)N[C@@H](CC(=O)O)C(N)=O)NC(=O)CNC(=O)[C@H](Cc2c[nH]c3ccccc23)NC(=O)[C@H](CCCNC(=N)N)NC(=O)[C@@H](Cc2ccc3ccccc3c2)NC(=O)[C@H](Cc2c[nH]cn2)NC(=O)[C@H](CCC(=O)O)NC1=O [HS014] (Ac-CEH[d2Nal]RWGCPPKD-NH2; disulfide 1-8)
EC50 [1]: 0.0158 µM | Emax ([1]; COS-7, read-out: Emax on rat MC4R relative to alpha-MSH Emax): ~40% | EC50 [2]: 0.035 µM | IC50 [3]: 0.00631 µM

CC(=O)N[C@@H](C)c1cc(Cl)ccc1C1CCN(C(=O)[C@@H]2CN(C(C)(C)C)C[C@H]2c2ccc(F)cc2F)CC1 [MK-0493]
effect on GLP-1 and PYY secretion [4]: increased

OC[C@H]1OC(O)[C@H](O)[C@@H](O)[C@@H]1O (stereo partly shown) [glucose]
total GLP-1 output during first luminal glucose stimulation, control experiment ([5]; luminal glucose 20% w/v, 15 min, baseline 1.8 ± 0.2 pmol, P <0.001, n = 6): 4.8 ± 0.34 pmol | total GLP-1 output during first luminal glucose stimulation, glucose + HS014 experiment (before HS014) ([5]; luminal glucose 20% w/v, 15 min, baseline 2.0 ± 0.5 pmol, P = 0.01, n = 6): 5.6 ± 1.0 pmol | fold increase of GLP-1 secretion by luminal glucose ([5]; luminal glucose infusion): 2–3 fold

bombesin
effect on GLP-1 output (positive control) [6]: robustly increased GLP-1 output | effect on GLP-1 output (positive control) [7]: robustly increased GLP-1 output
